Test results as given in patent publication US20240100121A1, “COMPOSITIONS OF A BETA-HAIRPIN PEPTIDOMIMETIC AND AEROSOL DOSAGE FORMS THEREOF” (priority 2020, published 2024).
Values after ≈ are worked out from the molar mass of the structure shown. Where a SMILES comes first, the peptide text is derived from it. [ ]: non-standard residue; d: D form. dDab = NCC[C@@H](N)C(=O)O; Orn = NCCC[C@H](N)C(=O)O; Dab = NCC[C@H](N)C(=O)O

Tests used:
[1] = 28-day dose inhalation study in CD-1 mice; type: in vivo
Procedure: (§1) In the 28-day dose inhalation study in CD-1 mice (20-minute snout only exposure), the mean estimated achieved doses of 0.8, 3.5 and 7.2 mg/kg/day murepavadin free base were administered. […] There were no other findings considered test item related.

[2] = set-up: species or system cynomolgus monkeys; conditions: cynomolgus monkey, in vivo
Procedure: as §1

[3] = test system: clinical Pseudomonas aeruginosa isolates; experiment: Mouse lung infection model (PK-PD); type: in vivo
[4] = test system: Pseudomonas aeruginosa isolates from respiratory samples of people with cystic fibrosis; experiment: Planktonic susceptibility (MIC) of CF isolates; type: cell-based
From the text: (§2) To perform biofilm tests with the Calgary device, fifty-three Pseudomonas aeruginosa isolates from respiratory samples of people with cystic fibrosis were selected among the 414 Pseudomonas aeruginosa of the iABC-collection (Ekkelenkamp M B et al., Antimicrob. Agents Chemother. 2019, 64, 1-7). A representative number of isolates from Northern Ireland, Spain, the Netherlands, and Australia were chosen, including different morphotyes: 18 smooth, 11 mucoid, 11 rough, 10 metallic, and 3 small colony variants. As control strains, the PAO (most commonly used strain for research on this ubiquitous and metabolically versatile opportunistic pathogen, Klockgether J et al., Journal of Bacteriology 2010, 192, 1113-1121) and its hypermutator derivative, PAO mutS strains were used (Oliver A et al., Antimicrob. Agents Chemother. 2004, 48, 4226-33).

[5] = test system: Pseudomonas aeruginosa isolates from respiratory samples of people with cystic fibrosis growing in biofilms; type: cell-based
From the text: (§3) Two types of assays, an open and a closed system, were used to evaluate the in vitro activity on biofilms. The closed or static system based on the Calgary device (Diez-Aguilar M et al., Antimicrob Agents Chemother. 2018, 62, e01650-17, doi: 10.1128/AAC.01650-17, Moskowitz S M et al., J. Clin. Microbiol. 2004, 42, 1915-1922) analyzes biofilm formation in the wells of microtiter plates and is suitable for high-throughput analysis, obtaining pharmacodynamics (PD) parameters, while the open or dynamic system using the BioFlux device (Benoit M R et al., Appl. Environ. Microbiol. 2010, 76, 4136-4142) better resembles the in vivo conditions.
as §2
(§4) This assay was performed as previously described but with minimal variations (Benoit M R et al., Appl. Environ. Microbiol. 2010, 76, 4136-4142) (FIG. 3). Briefly, a 0.5 McFarland culture was transferred to a flat-bottom 96-well microtiter plate (Nalge Nunc International, Rochester, New York, USA). Bacterial biofilm was formed around the pegs of a modified polystyrene microtiter lid. This lid with pegs was immersed into a growth plate and incubated for 20 h at 37° C. After rinsing the pegs 3 times in saline solution they were placed onto the antimicrobial in BBL™ Mueller-Hinton II cation-adjusted broth (MHB) (Becton, Dickinson and Company, Sparks, MD, USA) and incubated for 20 h at 37° C. […] After this incubation, the biofilm was recovered centrifuging (800 RPM/10 min) the peg lid in an antibiotic-free MHB filled-microtiter plate. The minimal biofilm inhibitory concentration (MBIC) was calculated after measuring the optical density (OD) (450 nm) before and after 6-hour incubation. Biofilm growth was defined as a mean OD difference of ≥0.05. […] The minimal biofilm eradication concentration (MBEC) was defined as the lowest concentration that prevents visible growth in the biofilm recovery medium after 18 h of the microtiter plate incubation (Ceri H et al., J. Clin. Microbiol. 1999, 37, 1771; Macià M D et al., Enferm. Infecc. Microbiol. Clin. 2018, 36, 375-381).
MBIC and the MBEC are used to determine the anti-biofilm antibiotic in vitro efficacy. MBIC is the lowest concentration at which there is no time-dependent increase in the mean number of biofilm viable cells comparing an early with a later exposure time, while the MBEC indicates the eradication (partly or completely) of biofilm viable cells (Thieme L et al., Biol. Proced. Online 2019, 21, 1-5).

[6] = test system: PA34 (smooth phenotype); experiment: microbe, parasite or virus in culture; type: cell-based, Pseudomonas aeruginosa
Procedure: (§5) Two CF isolates, PA34 (smooth phenotype) and PA40 (mucoid phenotype), and the 2 reference strains PAO and PAO mutS were tested with the BioFlux device. None of the clinical strains were hypermutators.
(§6) Planktonic and biofilm susceptibility of the strains established in the Calgary device and used in the BioFlux device are described in Table 12.

[7] = test system: PA40 (mucoid phenotype); experiment: microbe, parasite or virus in culture; type: cell-based, Pseudomonas aeruginosa
Procedure: as §5, §6

[8] = test system: PAO; experiment: microbe, parasite or virus in culture; type: cell-based, Pseudomonas aeruginosa
Procedure: as §5, §6

[9] = test system: PA34 (smooth phenotype); type: cell-based, Pseudomonas aeruginosa
Procedure: as §5, §4, §6

[10] = test system: PA40 (mucoid phenotype); type: cell-based, Pseudomonas aeruginosa
Procedure: as §5, §4, §6

[11] = test system: PAO mutS; type: cell-based, Pseudomonas aeruginosa
Procedure: as §5, §4, §6

[12] = test system: PAO; type: cell-based, Pseudomonas aeruginosa
Procedure: as §5, §4, §6

[13] = test system: PAO, PAO mutS, PA40, PA34; experiment: Planktonic susceptibility of all strains used in the BioFlux device; type: cell-based, Pseudomonas aeruginosa; conditions: all tested strains susceptible
Procedure: as §5, §6

[14] = test system: Pseudomonas aeruginosa biofilms (PAO, PAO mutS, PA34, PA40); experiment: Biofilm assays performed by the BioFlux microfluidic open system; type: cell-based; conditions: both open and closed biofilm-testing systems
From the text: as §3, with “conditions. […]” for “conditions.”
Several biofilms were simultaneously developed in a 48 wells plate in the BioFlux 200 system, following an adapted protocol from Benoit M R et al. (Appl. Environ. Microbiol. 2010, 76, 4136-4142). […] Biofilm images were taken using a Nikon Eclipse Ti microscope (Nikon, Tokyo, Japan) and analyzed with the ImageJ program (Java-based image processing program, National Institute of Health, Bethesda, Maryland, USA and Laboratory for Optical and Computational Instrumentation, University of Wisconsin, Wisconsin, USA). The mean percentage of intensity of red fluorescence corresponding to dead cells within the biofilm is represented in a bar chart as black bar (FIG. 4). […]

[15] = biofilm, Calgary device, CF isolates

In the case of `CC[C@H](C)[C@@H]1NC(=O)[C@H](Cc2c[nH]c3ccccc23)NC(=O)[C@H]([C@@H](C)O)NC(=O)[C@@H]2CCCN2C(=O)[C@H]2CCCN2C(=O)[C@H](CO)NC(=O)[C@H](C)NC(=O)[C@H](CCN)NC(=O)[C@H](CCN)NC(=O)[C@H](Cc2c[nH]c3ccccc23)NC(=O)[C@H](CCN)NC(=O)[C@@H](CCN)NC(=O)[C@H](CCCN)NC(=O)[C@H](CCN)NC1=O` [murepavadin, cyclo(-Thr-Trp-Ile-Dab-Orn-^DDab-Dab-Trp-Dab-Dab-Ala-Ser-^DPro-Pro-)] (cyclo(TWI[Dab][Orn][dDab][Dab]W[Dab][Dab]AS[dP]P); ring closure inferred), the “No Observed Adverse Effect Level (NOAEL)” value ([1]; 28-day inhalation, 0.8, 3.5 and 7.2 mg/kg/day, adverse pathology in the upper respiratory tract) is reported as “no No Observed Adverse Effect Level (NOAEL) could be established”, the systemic toxicity ([1]; 28-day inhalation, 20-minute snout only exposure, up to 7.2 mg/kg/day murepavadin free base) is reported as “no evidence of systemic toxicity” and the “microscopic test item related findings at the tracheal bifurcation” value [2] is reported as “not considered adverse”. The “reduction of bacterial burden” value ([3]; IT doses of 0.075-0.625 mg/kg, three out of four clinical isolates) was over 2 log10, the “achieved dose required to attain the ELF AUC exposure” value ([3]; inhalation administration) was 0.18 mg/kg and the “achieved dose required to attain the ELF AUC exposure” value ([3]; intra-tracheal (i.t.) administration) was 0.10 mg/kg. For the same molecule, the “mean AUC exposure in ELF sufficient to achieve a 1-login reduction of bacterial burden” value ([3]; subcutaneous injection, 15 clinical Pseudomonas aeruginosa isolates) was 12.23 h·mg/L, the MIC50 [4] was at most 0.5 µg/mL and the MIC90 [4] was 1 µg/mL (≈ 0.644 µM). For the same molecule, the MIC range [4] was at most 0.5 to 32 µg/mL, the MBEC50 [5] was 16 mg/L and the MBEC90 [5, 15] was 64 mg/L. It also gave an MBIC50 [5, 15] of 4 mg/L, an MBIC90 [5, 15] of 32 mg/L and an MBIC range [5, 15] of at most 0.5 to 64 mg/L. It also gave an MIC [6] of 0.06 µg/mL (≈ 0.0386 µM), an MIC [7] of 0.06 µg/mL (≈ 0.0386 µM) and an MIC [8] of 0.06 µg/mL (≈ 0.0386 µM). For the same molecule, the MBEC [9] was 4 mg/L, the MBIC [9] was 2 mg/L and the MBEC [10] was 8 mg/L. The MBIC [10] was 2 mg/L, the MBEC [11] was 256 mg/L and the MBIC [11] was 32 mg/L. It also gave an MBEC [12] of 8 mg/L, an MBIC [12] of 4 mg/L and an MIC [13] of 0.12 µg/mL (≈ 0.0772 µM). For the same molecule, the “activity against biofilms of Pseudomonas aeruginosa” value [14] was “displayed activity”.
